# Assay: physchem
# Settings: for solubility: pH 7, aqueous buffer, thermodynamic from solid
# Method: The acetaminophen solubility was measured at 25° C. and 5° C.
compound,measurement,setting,value
"CC(=O)Nc1ccc(O)cc1 [acetaminophen, N-acetyl-p-aminophenol]",solubility,5 °C,~8.86 mg/mL
same,solubility,25 °C,~16 mg/mL
same,CAPTISOL® concentration with which a 10 mg/ml acetaminophen solution can be made,pH 7,less than 0.05 M
